# Reference: patent US9321722B2, “Bis-indolic derivatives, their uses in particular as antibacterials” (UNIVERSITE JOSEPH FOURIER, priority 2011, dated 2016)
# Experiments:
# Type in all cases: cell-based
# [1] = tested on: HCT116 (human colon tumor); test: In vitro cytotoxicity; conditions: for inhibition at 10 µM: HCT-116, HCT116, 10^−5 M, read-out: % of cellular growth inhibition; for inhibition at 1 µM: HCT-116, HCT116, 10^−6 M, read-out: % of cellular growth inhibition (converted)
# Experimental: (§1) In vitro cytotoxicity was assayed on three cell lines—KB (human mouth carcinoma), MCR5 (human lung fibroblast) and HCT116 (human colon tumor). Results are presented in table III as % of cellular growth inhibition in presence of 10^−5 M and 10^−6 M of the tested bis-indolic derivatives.
# [2] = tested on: KB (human mouth carcinoma); test: In vitro cytotoxicity; conditions: KB; for inhibition at 10 µM: 10^−5 M, read-out: % of cellular growth inhibition; for inhibition at 1 µM: 10^−6 M, read-out: % of cellular growth inhibition (converted)
# Experimental: as §1
# [3] = tested on: MRC5 (human lung fibroblast); test: In vitro cytotoxicity; conditions: for inhibition at 10 µM: MRC5, 10^−5 M, read-out: % of cellular growth inhibition; for inhibition at 1 µM: MRC5, 10^−6 M, read-out: % of cellular growth inhibition (converted)
# Experimental: as §1
# [4] = tested on: Staphylococcus aureus 1199B (overexpression of the NorA efflux pump); test: Efflux pump inhibition assay with sub-inhibitory ciprofloxacin
# Experimental: (§2) The efflux pump inhibition potential of the bis-indolic derivatives was tested using two steps. In a first step, the intrinsic antibacterial activity of the compounds was assayed against the following strains:
# (§3) The following experimental protocol was used: indolic derivatives (initially solubilised in DMSO at 10 mg/mL) were dispensed in a 96-wells microplate by two fold serial dilutions in Muller-Hinton medium (MH, Bio Rad) using a Biomek 2000 (Beckman) handling robot. 100 μL of the bacterial inoculum (an overnight culture at 37° C. in 5 mL MH diluted 100-fold) was then added in each well. The total volume was 200 μL in each well and the final bacteria concentration 10^6 CFU/mL (CFU: colony forming unit). The highest final indolic derivative concentration was 128 mg/L. Growth was assayed with a microplate reader by monitoring absorption at 620 nm after 1, 2, 5, 7 and 24 h incubation at 37° C. In addition, the plates were read visually after 24 hours incubation. Cultures containing 5 μL DMSO were used as growth controls. In addition, two controls containing a sub-inhibitory or a inhibitory antibiotic concentration for the tested strain were performed. The antibiotics used were ampicillin (0.5 and 32 μg/mL) for E. coli, kanamycin (0.5 and 16 μg/mL) for S. aureus ATCC 25923, ciprofloxacin (4 and 64 mg/L) for S. aureus 1199B, ciprofloxacin (0.5 and 2 mg/L) for S. aureus K2378. All experiments were performed in duplicate.
# (§4) Efflux pump inhibition assays were then performed against resistant Staphylococcus aureus strains SA 1199B and SA K2378 for bis-indolic derivatives. […] The minimal inhibitory concentration (MIC) of the bis-indolic compound allowing a complete inhibition of the bacterial growth in the presence of ciprofloxacin was determined.
# [5] = tested on: Staphylococcus warneri (CHUG-Swar7); test: MIC, Staphylococcus panel (Table I-2); conditions: 18 h, 4% DMSO
# Experimental: (§5) We used the previously described protocol, with subtle modifications. The microdilution method recommended by the Clinical and Laboratory Standard Institute [M07-A9, Vol. 32, N^o 2] was used. The activity of bis-indolic compounds was tested against 35 bacterial strains belonging to 12 different Staphylococcus species.
# (§6) Bacterial inocula were prepared in Mueller Hinton broth (MH2, BioMerieux, Marcy L'Etoile, France). They were dispensed in 96 well microtiter plates (5×10^5 CFU/ml of final inoculum, 192 μL per well). Indolic compounds diluted in pure DMSO (8 μL per well, concentrated 25 times) were added to the wells as to obtain two-fold serial concentrations (0.5-32 mg/L of final concentrations). The final concentration of DMSO was 4% in each well.
# (§7) To avoid cross-contaminations in microtiter plates, one row was left blank between each strain tested. Microplates were incubated for 18 h at 37° C. in ambient air or at 37° C. in 5% CO2 enriched atmosphere for fastidious species. Then MICs were read visually and, in case of visual reading difficulties, confirmed using a spectrophotometer at a wavelength of 630 nm (BioTek® EL808 Absorbance Microplate Reader). MICs corresponded to the minimum bis-indolic compound concentration that allowed complete visual growth inhibition of bacteria. Drug-free cultures served as growth controls.
# (§8) Coagulase-negative Staphylococcus strains included three reference strains purchased from CRBIP: a methicillin-susceptible S. epidermidis strain (ATCC 12228), a methicillin-resistant S. epidermidis strain (ATCC 49461), and a methicillin-susceptible S. sciuri strain (ATCC 29061). We also used clinical strains belonging to the following coagulase-negative Staphylococcus species: S. auricularis (two strains), S. warneri (five strains), S. capitis (five strains), S. haemolyticus (four strains), S. hominis (seven strains), S. cohnii (two strains), and S. saprophyticus, S. caprae and S. simulans (one strain each). Identification of the clinical strains was obtained using VITEK® 2 System (Biomérieux).
# [6] = tested on: Staphylococcus hominis (CHUG-Shom3); test: MIC, Staphylococcus panel (Table I-2); conditions: 18 h, 4% DMSO
# Experimental: as §5, §6, §7, §8
# [7] = tested on: Staphylococcus haemolyticus (CHUG-Shae1); test: MIC, Staphylococcus panel (Table I-2); conditions: 18 h, 4% DMSO
# Experimental: as §5, §6, §7, §8
# [8] = tested on: Staphylococcus hominis (CHUG-Shom1); test: MIC, Staphylococcus panel (Table I-2); conditions: 18 h, 4% DMSO
# Experimental: as §5, §6, §7, §8
# [9] = tested on: Staphylococcus warneri (CHUG-Swar1); test: MIC, Staphylococcus panel (Table I-2); conditions: 18 h, 4% DMSO
# Experimental: as §5, §6, §7, §8
# [10] = tested on: Staphylococcus warneri (CHUG-Swar6); test: MIC, Staphylococcus panel (Table I-2); conditions: 18 h, 4% DMSO
# Experimental: as §5, §6, §7, §8
# [11] = tested on: Staphylococcus capitis (CHUG-Scap7); test: MIC, Staphylococcus panel (Table I-2); conditions: 18 h, 4% DMSO
# Experimental: as §5, §6, §7, §8
# [12] = tested on: Staphylococcus epidermidis ATCC 12228; test: MIC, Staphylococcus panel (Table I-2); conditions: ATCC12228, 18 h, 4% DMSO
# Experimental: as §5, §6, §7, §8
# [13] = tested on: Staphylococcus warneri (CHUG-Swar5); test: MIC, Staphylococcus panel (Table I-2); conditions: 18 h, 4% DMSO
# Experimental: as §5, §6, §7, §8
# [14] = tested on: Staphylococcus hominis (CHUG-Shom7); test: MIC, Staphylococcus panel (Table I-2); conditions: 18 h, 4% DMSO
# Experimental: as §5, §6, §7, §8
# [15] = tested on: Staphylococcus auricularis (CHUG-Saur1); test: MIC, Staphylococcus panel (Table I-2); conditions: 18 h, 4% DMSO
# Experimental: as §5, §6, §7, §8
# [16] = tested on: Staphylococcus hominis (CHUG-Shom6); test: MIC, Staphylococcus panel (Table I-2); conditions: 18 h, 4% DMSO
# Experimental: as §5, §6, §7, §8
# [17] = tested on: Staphylococcus saprophyticus (CHUG-Ssap2); test: MIC, Staphylococcus panel (Table I-2); conditions: 18 h, 4% DMSO
# Experimental: as §5, §6, §7, §8
# [18] = tested on: Staphylococcus hominis (CHUG-Shom5); test: MIC, Staphylococcus panel (Table I-2); conditions: 18 h, 4% DMSO
# Experimental: as §5, §6, §7, §8
# [19] = tested on: Staphylococcus cohnii (CHUG-Scoh1) (MRSA); test: MIC, Staphylococcus panel (Table I-2); conditions: 18 h, 4% DMSO
# Experimental: as §5, §6, §7, §8
# [20] = tested on: Staphylococcus aureus K2378 (overexpresses the efflux pump NorA from a multicopy plasmid); test: Efflux pump inhibition assay with sub-inhibitory ciprofloxacin
# Experimental: as §2, §3, §4
# [21] = in the presence of ciprofloxacin 4 mg/L (MIC/4)
# [22] = in the presence of ciprofloxacin 0.25 mg/L (MIC/8)
Compound,inhibition at 10 µM [1],inhibition at 1 µM [1],inhibition at 10 µM [2],inhibition at 1 µM [2],inhibition at 10 µM [3],inhibition at 1 µM [3],"CMI, mg/L (Ciprofloxacin concentration, mg/L) [4, 21]","CMI, mg/L (Ciprofloxacin concentration, mg/L) [20, 22]",other results
"CC(C)(C)OC(=O)NCC(NC(=O)C(=O)c1c[nH]c2ccccc12)c1c[nH]c2ccccc12 (stereo not shown) [Compound 2, tert-Butyl(2-(2-(1H-indol-3-yl)-2-oxoacetamido)-2-(1H-indol-3-yl)ethyl)carbamate]",96 ± 1%,53%,97 ± 1%,33%,100 ± 2%,10 ± 0.5%,0.5 (4) mg/L,–,"CMI, mg/L (Ciprofloxacin concentration, mg/L) ([4]; in the presence of ciprofloxacin 2 mg/L (MIC/8)): 2 (2) mg/L"
"CC(C)(C)OC(=O)NCC(NC(=O)C(=O)c1c[nH]c2ccc(Br)cc12)c1c[nH]c2ccc(Br)cc12 (stereo not shown) [Compound 4, tert-Butyl(2-(5-bromo-1H-indol-3-yl)-2-(2-(5-bromo-1H-indol-3-yl)-2-oxoacetamido)ethyl) carbamate]",58 ± 4%,0%,76 ± 5%,0%,51 ± 9%,0%,–,–,MIC [5]: 1 µg/mL; MIC [6]: 1 µg/mL; MIC [7]: 1 µg/mL; MIC [8]: 2 µg/mL; MIC [9]: 1 µg/mL; MIC [10]: 1 µg/mL; MIC [11]: 1 µg/mL; MIC [12]: 1 µg/mL; MIC [13]: 1 µg/mL; MIC [14]: 1 µg/mL; MIC [15]: 1 µg/mL; MIC [16]: 1 µg/mL; MIC [17]: 1 µg/mL; MIC [18]: 1 µg/mL; MIC [19]: 1 µg/mL
"CC(NC(=O)C(=O)c1c[nH]c2ccc(Br)cc12)c1c[nH]c2ccc(Br)cc12 (stereo not shown) [Compound 5, 2-(5-Bromo-1H-indol-3-yl)-N-(1-(5-bromo-1H-indol-3-yl)ethyl)-2-oxoacetamide]",80 ± 3%,10%,91 ± 3%,0%,85 ± 2%,6%,–,–,MIC [5]: 2 µg/mL; MIC [6]: 2 µg/mL; MIC [7]: 4 µg/mL; MIC [8]: 4 µg/mL; MIC [9]: 2 µg/mL; MIC [10]: 2 µg/mL; MIC [11]: 2 µg/mL; MIC [12]: 2 µg/mL; MIC [13]: 1 µg/mL; MIC [14]: 2 µg/mL; MIC [15]: 1 µg/mL; MIC [16]: 2 µg/mL; MIC [17]: 2 µg/mL; MIC [18]: 1 µg/mL; MIC [19]: 2 µg/mL
"O=C(C(=O)N1CCCCC1c1c[nH]c2ccccc12)c1c[nH]c2ccccc12 (stereo not shown) [Compound 6a, 1-(2-(1H-Indol-3-yl)piperidin-1-yl)-2-(1H-indol-3-yl)ethane-1,2-dione]",37 ± 6%,0%,20 ± 13%,0%,28 ± 9%,0%,<0.125 (4) mg/L,8 (0.25) mg/L,–
"O=C(C(=O)N1CCOCC1c1c[nH]c2ccccc12)c1c[nH]c2ccccc12 (stereo not shown) [Compound 6b, 1-(3-(1H-Indol-3-yl)morpholino)-2-(1H-indol-3-yl)ethane-1,2-dione]",21 ± 10%,2%,9 ± 4%,0%,15 ± 11%,0%,0.5 (4) mg/L,16 (0.25) mg/L,–
"CC(C)(C)OC(=O)N1CCN(C(=O)C(=O)c2c[nH]c3ccccc23)C(c2c[nH]c3ccccc23)C1 (stereo not shown) [Compound 6c, tert-Butyl 4-(2-(1H-indol-3-yl)-2-oxoacetyl)-3-(1H-indol-3-yl)piperazine-1-carboxylate]",53 ± 3%,8%,66 ± 8%,0%,6 ± 16%,0%,0.25 (4) mg/L,16 (0.25) mg/L,–
"O=C(C(=O)N1CCCCC1c1c[nH]c2ccc(Br)cc12)c1c[nH]c2ccc(Br)cc12 (stereo not shown) [Compound 6d, 1-(5-Bromo-1H-indol-3-yl)-2-(2-(5-bromo-1H-indol-3-yl)piperidin-1-yl)ethane-1,2-dione]",41 ± 4%,4%,53 ± 5%,0%,0%,0%,<0.125 (4) mg/L,8 (0.25) mg/L,–
"CC(C)(C)OC(=O)N1CCN(C(=O)C(=O)c2c[nH]c3ccc(Br)cc23)C(c2c[nH]c3ccc(Br)cc23)C1 (stereo not shown) [Compound 6f, tert-Butyl 3-(5-bromo-1H-indol-3-yl)-4-(2-(5-bromo-1H-indol-3-yl)-2-oxoacetyl) piperazine-1-carboxylate]",81 ± 2%,0%,92 ± 3%,0%,39 ± 4%,0%,<0.25 (4) mg/L,1 (0.25) mg/L,"CMI, mg/L (Ciprofloxacin concentration, mg/L) ([20]; in the presence of ciprofloxacin 0.5 mg/L (MIC/4)): 1 (0.5) mg/L"
